Measurements: patent US11976062B2, “Benzisoxazole compound” (OSAKA UNIVERSITY, priority 2018, dated 2024)

Biological target: T1, TRPC6 channel (Homo sapiens, UniProt Q9Y210)
T1 construct: expressed in transfected cells; host or cells: HEK293
T1 sequence (Q9Y210 1-931): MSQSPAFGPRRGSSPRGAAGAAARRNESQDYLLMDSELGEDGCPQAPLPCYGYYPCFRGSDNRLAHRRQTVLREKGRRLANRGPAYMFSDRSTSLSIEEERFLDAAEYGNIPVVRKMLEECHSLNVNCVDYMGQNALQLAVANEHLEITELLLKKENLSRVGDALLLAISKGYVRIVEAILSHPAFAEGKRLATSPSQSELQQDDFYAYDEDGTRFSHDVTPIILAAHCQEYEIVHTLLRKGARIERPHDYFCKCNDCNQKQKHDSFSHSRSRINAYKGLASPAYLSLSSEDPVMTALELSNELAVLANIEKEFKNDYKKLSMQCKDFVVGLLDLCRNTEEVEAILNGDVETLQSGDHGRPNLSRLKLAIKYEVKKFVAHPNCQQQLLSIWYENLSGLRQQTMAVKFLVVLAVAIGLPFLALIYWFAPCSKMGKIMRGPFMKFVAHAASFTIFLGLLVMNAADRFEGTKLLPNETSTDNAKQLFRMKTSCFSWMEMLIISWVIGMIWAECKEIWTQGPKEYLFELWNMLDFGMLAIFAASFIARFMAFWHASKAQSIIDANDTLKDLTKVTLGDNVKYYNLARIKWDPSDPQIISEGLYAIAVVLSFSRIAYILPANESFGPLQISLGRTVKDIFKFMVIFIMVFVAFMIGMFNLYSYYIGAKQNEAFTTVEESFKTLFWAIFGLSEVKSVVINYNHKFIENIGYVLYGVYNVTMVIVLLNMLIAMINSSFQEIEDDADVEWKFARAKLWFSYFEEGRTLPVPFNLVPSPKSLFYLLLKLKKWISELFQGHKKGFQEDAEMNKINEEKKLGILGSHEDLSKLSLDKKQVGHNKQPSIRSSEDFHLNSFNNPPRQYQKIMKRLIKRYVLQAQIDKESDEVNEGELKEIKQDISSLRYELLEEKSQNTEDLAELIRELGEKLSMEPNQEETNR
Test: Calcium assay using HEK293 cells transiently expressing TRPC6 channel, carbachol activation (Fura-2)
Type: cell-based
Details: 10 μM test compound, carbachol
Method: A TRPC6 gene was introduced into HEK293 cells (cells derived from human fetal kidney) by lipofection, and the TRPC6 channel was expressed on the cell membrane. Specifically, the plasmid DNA of TRPC6 (pCI-neo; Promega Corporation) was introduced into HEK293 cells using a lipofection reagent, and then cultured at 37° C. for 24 to 48 hours to express the TRPC6 channel on the cell membrane. In the same manner, HEK293 cells into which the TRPC3 gene was introduced were cultured, and the TRPC3 channel was expressed on the cell membrane.
The cultured cells were peeled off with trypsin and seeded on a cover glass again, followed by culturing the cells at 37° C. for 3 hours again. A Fura-2 AM calcium indicator was added to the medium, and the cells were cultured at 37° C. for 30 minutes to allow the cells to incorporate the indicator. For the extracellular solution, a Ca^2+-containing solution and a Ca^2+-free solution were prepared. • Ca^2+-containing solution: 2 mM CaCl2, 132 mM NaCl, 4 mM KCl, 1 mM MgCl2, 5 mM glucose, 5 mM HEPES (pH 7.4) • Ca^2+-free solution: 132 mM NaCl, 4 mM KCl, 1 mM MgCl2, 5 mM glucose, 5 mM HEPES (pH 7.4)
After the cells were added to the Ca^2+-containing solution, the following operation was performed while the fluorescence intensity (510 nm) of Fura-2 was measured at room temperature with an ARGUS CA-20 (Hamamatsu Photonics K.K.) over time. • 0 minutes: TRPC3-expressing cells or TRPC6-expressing cells are placed in a measurement chamber that contains the Ca^2+-containing solution. • After 30 seconds: The Ca^2+-containing solution is replaced with the Ca^2+-free solution. • After 1 minute: A predetermined amount of a test compound is added to the Ca^2+-free solution. • After 3 minutes: Carbachol (100 μM) is added to the Ca^2+-free solution. • After 7 minutes: The Ca^2+-free solution is replaced with the Ca^2+-containing solution that contains a test compound and carbachol […]. • After 15 minutes: Measurement is ended.
Compound 011 was used as the test compound, and the amount of the test compound added was 0.01, 0.1, 0.5, 1.0, 5.0, 10, or 50 μM. For the control, 0.1% DMSO was used in place of the test compound. Carbachol (cch) is a TRPC-channel-activating reagent. Applying carbachol to cells opens the TRPC channel and allows a large amount of Ca^2+ in the extracellular solution to flow into the cells. Fura-2 AM has high cell membrane permeability due to the presence of an AM group (acetoxymethyl group), and is thus easily incorporated into the cells. The AM group is hydrolyzed in the cells to become Fura-2. Thus, Fura-2 can form a chelate with Ca^2+ and is also unlikely to leak out of the cells due to the loss of the AM group.
In the same manner as in Test Example 1, the maximum calcium ion concentration was measured after 7 minutes from the start of measurement (i.e., after replacement with the Ca^2+-containing solution) by using TRPC6-expressing cells prepared in the same manner as in Test Example 1, except that 10 μM of Pyr 4 and 10 μM of compound 011, 031, 041, or 191 (test compound) were used. The average value of calcium ion concentrations up to 30 seconds after the start of measurement (the initial value of calcium ion concentration) was subtracted from the maximum calcium ion concentration, and the calculated value was determined to be the amount of increase in calcium ions. FIG. 3 illustrates the results.
The calcium ion concentration was measured in the same manner as in Test Example 2, except that 10 μM of compound 011, 361, 362(E), 362(Z), 371, 372(Z), 381, or 401 (test compound) was used, and Pyr 4 was not used, thereby determining the amount of increase in calcium ions. Table 2 illustrates the amount of increase in calcium ions for each test compound relative to the amount of increase in calcium ions in the control (DMSO) taken as 100%.

SMILES | suppression of TRPC6 channel activation (decrease in calcium ion influx, FIG. 3)
C[C@H]1CN(c2ncc(C(=O)O)cc2Cl)CCN1c1noc2cccc(C(F)(F)F)c12 [Compound 031, (S)-5-chloro-6-(3-methyl-4-(4-(trifluoromethyl)benzo[d]isoxazol-3-yl)piperazin-1-yl) nicotinic acid] | activation of the TRPC6 channel was suppressed
C[C@@H]1CN(c2ncc(C(=O)O)cc2Cl)CCN1c1noc2cccc(C(F)(F)F)c12 [Compound 041, (R)-5-chloro-6-(3-methyl-4-(4-(trifluoromethyl)benzo[d]isoxazol-3-yl)piperazin-1-yl) nicotinic acid] | activation of the TRPC6 channel was suppressed
O=C(O)c1cnc(N2CC3CCC(C2)N3c2noc3cccc(C(F)(F)F)c23)c(Cl)c1 [Compound 191, 5-chloro-6-(8-(4-(trifluoromethyl)benzo[d]isoxazol-3-yl)-3,8-diazabicyclo[3,2,1]octan-3-yl)nicotinic acid] | activation of the TRPC6 channel was suppressed

Same assay, conditions: 10 μM test compound, carbachol, TRPC6-expressing cells

amount of increase in calcium ions relative to control (DMSO) taken as 100% [%] | SMILES
72 | FC(F)(F)c1cccc2onc(N3CC=C(c4ccccc4Cl)CC3)c12 [Compound 361, 3-(4-(2-chlorophenyl)-3,6-dihydropyridin-1(2H)-yl)-4-(trifluoromethyl)benzo[d]isoxazole]
65 | O/N=C(\c1c(F)cccc1C(F)(F)F)N1CC=C(c2ccccc2Cl)CC1 [Compound 362(E), E-(4-(2-chlorophenyl)-3,6-dihydropyridin-1(2H)-yl)(2-fluoro-6-(trifluoromethyl)phenyl)methanone oxime]
54 | O/N=C(/c1c(F)cccc1C(F)(F)F)N1CC=C(c2ccccc2Cl)CC1 [Compound 362(Z), (Z)-(4-(2-chlorophenyl)-3,6-dihydropyridin-1(2H)-yl)(2-fluoro-6-(trifluoromethyl)phenyl)methanone oxime]
61 | CCOC(=O)c1cnc(N2CCN(c3noc4cccc(C(F)(F)F)c34)CC2=O)c(Cl)c1 [Compound 371, ethyl 5-chloro-6-(2-oxo-4-(4-(trifluoromethyl)benzo[d]isoxazol-3-yl)piperazin-1-yl) nicotinate]
72 | CCOC(=O)c1cnc(N2CCN(/C(=N\O)c3c(F)cccc3C(F)(F)F)CC2=O)c(Cl)c1 [Compound 372(Z), ethyl (Z)-5-chloro-6-(4-((2-fluoro-6-(trifluoromethyl)phenyl)(hydroxyimino)methyl)-2-oxopiperazin-1-yl)nicotinate]
57 | O=C(O)c1cnc(N2CCN(c3noc4cccc(C(F)(F)F)c34)CC2=O)c(Cl)c1 [Compound 381, 5-chloro-6-(2-oxo-4-(4-(trifluoromethyl)benzo[d]isoxazol-3-yl)piperazin-1-yl)nicotinic acid]
19 | O=C(O)c1ccc(C2=CCN(c3noc4cccc(C(F)(F)F)c34)CC2)c(Cl)c1 [Compound 401, 3-chloro-4-(1-(4-(trifluoromethyl)benzo[d]isoxazol-3-yl)-1,2,3,6-tetrahydropyridin-4-yl)benzoic acid]

Biological target: T1, TRPC6 channel
Test: Calcium assay using HEK293 cells transiently expressing TRPC6 channel, ATP as activating reagent
Type: cell-based
Details: 10 μM test compound
Method: In the same manner as in Test Example 2, the calcium ion concentration was measured, except that 10 μM of Pyr 4 and 10 μM of compound 202(E), 061, or 071 (test compound) were used, and ATP was used as a TRPC channel activating reagent instead of carbachol, thereby determining the amount of increase in calcium ions. FIG. 4 illustrates the results.

SMILES | suppression of TRPC6 channel activation (decrease in calcium ion influx, FIG. 4)
Clc1ccccc1N1CCN(c2noc3cccc(Cl)c23)CC1 [Compound 061, 4-chloro-3-(4-(2-chlorophenyl)piperazin-1-yl)benzo[d]isoxazole] | activation of the TRPC6 channel was suppressed
Clc1cccnc1N1CCN(c2noc3cccc(Cl)c23)CC1 [Compound 071, 4-chloro-3-(4-(3-chloropyridin-2-yl)piperazin-1-yl)benzo[d]isoxazole] | activation of the TRPC6 channel was suppressed
O/N=C(\c1cccc(Cl)c1Cl)N1CCN(c2ccccc2Cl)CC1 [Compound 202(E), (E)-(4-(2-chlorophenyl)piperazin-1-yl)(2,3-dichlorophenyl)methanone oxime] | activation of the TRPC6 channel was suppressed

System: cardiac fibrosis induced by pressure overload
Test: not given
Details: mice, NPL 1 and 2; cited from earlier work

SMILES | suppression of cardiac fibrosis induced by pressure overload
CCOC(=O)c1cnn(-c2ccc(NC(=O)C(Cl)=C(Cl)Cl)cc2)c1C(F)(F)F [Pyr3] | potently suppresses cardiac fibrosis induced by pressure overload
